System: 997726-040-R-J2-PDC tumor spheroids, viability
Assay: Anticancer human tumor 997726-040-R-J2-PDC patient-derived squamous cell lung carcinoma cell line growth inhibition [PI3K]
Details: spheroids with HUVEC and MSC; for IC50: curve of first compound; for viability, T/C: stronger effect = lower value
Text: Combinatorial screen of targeted agents with the PI3K inhibitors inavolisib, alpelisib, duvelisib, and copanlisib in multi-cell type tumor spheroids
A high-throughput screen of multi-cell type tumor spheroids was designed to identify active combinations of targeted small molecules and PI3K pathway inhibitors. Complex spheroids include a stromal component modeled by human endothelial cells (HUVEC) and fibroblasts modeled by human mesenchymal stem cells (MSCs). The concentration ranges selected for each drug and investigational agent were based upon clinically achievable concentrations if the clinical Cmax of the agent was known.
Compounds. The drugs and investigational agents: inavolisib (NSC800729), alpelisib (NSC765974), duvelisib (NSC772469), copanlisib (NSC816437), ipatasertib (NSC767898), afuresertib (NSC778305), talazoparib (NSC767125), sapanisertib (NSC764658), selumetinib (NSC741078), tovorafenib (DAY101, NSC766906), vemurafenib (NSC761431), ravoxertinib (NSC781343), sotorasib (NSC818433), MRTX1133 (NSC 836407), abemaciclib (NSC 768073), palbociclib (NSC758247), venetoclax (NSC 766270), SY5609 (NSC837396), enzalutamide (NSC755605), and darolutamide (NSC825331), were obtained from the National Cancer Institute (NCI) Developmental Therapeutics Program Chemical Repository. The FDA-approved anticancer drug set is available from the NCI Developmental Therapeutics Program. […] The stock solutions were prepared in dimethyl sulfoxide (DMSO, Sigma-Aldrich, St. Louis, MO, cat. D2650) at 800-fold the tested concentration and stored at -70 degrees C prior to their use. All drugs and investigational agents were tested over a range starting from a high concentration at or near the clinical Cmax and decreasing in half-log increments. If the clinical Cmax for an agent had not been determined, the highest concentration tested was 10 microM.
Cell Culture. All cells were maintained in an incubator at 37 degrees C and 5% CO2 with 95% humidity. The PDC lines were cultured according to standard operating procedures established by the NCI PDMR (https://pdmr.cancer.gov/sops/default.htm). All PDCs were thawed and cultured in Matrigel-coated flasks prepared with a working solution of 1X Ham's F-12 nutrient mix, without supplementation (Invitrogen, Waltham, MA, cat. 11765054), 100 U/mL penicillin-streptomycin (Invitrogen, cat. 15140122), and 2.5% Matrigel (Corning Inc., Corning, NY, cat. 354248) for the first three passages. The 354836-022-R-J1-PDC, 475296-252-R-J1-PDC, and 997726-040-R-J2-PDC lines were cultured in 6A media, which includes advanced DMEM/F-12 (Thermo Fisher Scientific, cat. 12634028), 10 mM HEPES (Thermo Fisher Scientific, cat. 15630080), 1X GlutaMAX supplement (Thermo Fisher Scientific, cat. 35050061), 0.1 mg/mL primocin (InvivoGen, San Diego, CA, cat. ant-pm-2), 10% defined fetal bovine serum, heat inactivated (HyClone Laboratories Inc., Logan, UT, cat. SH30070.03HI), 50% L-WRN conditioned media (ATCC, cat. CRL-3276), 1.25 mM N-Acetyl-L-cysteine (Sigma-Aldrich, cat. A9165), 10 mM nicotinamide (Sigma-Aldrich, cat. N0636), 1X B-27 supplement (Thermo Fisher Scientific, cat. 17504044), 1X N-2 supplement (Thermo Fisher Scientific, cat. 17502048), and 10 microM Y-27632 dihydrochloride (Tocris Bioscience, Bristol, United Kingdom, cat. 1254). The 624824-186-R-J2-PDC line was cultured in 6C/Colon 1B media, which includes all 6A media components plus 50 ng/mL human EGF recombinant protein (Thermo Fisher Scientific, cat. PHG0311). […]
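Further: spheroids exposed to compounds for seven days before readout.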

Work on `CC(C)NCC(C(=O)N1CCN(c2ncnc3c2C(C)CC3O)CC1)c1ccc(Cl)cc1` (configuration not stated) + CC(Nc1ccc2c(c1)OCCn1cc(N3C(=O)OCC3C(F)F)nc1-2)C(N)=O yielded an IC50 (second compound 0.00316 µM) of 269 nM, an IC50 (second compound 0.01 µM) of 233 nM and an IC50 (second compound 0.0316 µM) of 149 nM. The IC50 (second compound 0.1 µM) was 35.8 nM, the IC50 (second compound 0.316 µM) was < 31.6 nM and the IC50 (second compound 1 µM) was < 31.6 nM. The viability, T/C (second compound 0.00316 µM, first compound 0.0316 µM) was 77.7%, the viability, T/C (second compound 0.00316 µM, first compound 0.1 µM) was 68.9% and the viability, T/C (second compound 0.00316 µM, first compound 0.316 µM) was 45.2%. The viability, T/C (second compound 0.00316 µM, first compound 1 µM) was 27.8%, the viability, T/C (second compound 0.00316 µM, first compound 3.16 µM) was 10.2% and the viability, T/C (second compound 0.00316 µM, first compound 10 µM) was 9.8%. For the same compound, the viability, T/C (second compound 0.01 µM, first compound 0.0316 µM) was 71.5%, the viability, T/C (second compound 0.01 µM, first compound 0.1 µM) was 65.8% and the viability, T/C (second compound 0.01 µM, first compound 0.316 µM) was 41.3%. It also gave a viability, T/C (second compound 0.01 µM, first compound 1 µM) of 30.3%, a viability, T/C (second compound 0.01 µM, first compound 3.16 µM) of 10.5% and a viability, T/C (second compound 0.01 µM, first compound 10 µM) of 7.89%. For the same compound, the viability, T/C (second compound 0.0316 µM, first compound 0.0316 µM) was 53.3%, the viability, T/C (second compound 0.0316 µM, first compound 0.1 µM) was 57.7% and the viability, T/C (second compound 0.0316 µM, first compound 0.316 µM) was 41.3%. The viability, T/C (second compound 0.0316 µM, first compound 1 µM) was 26.6%, the viability, T/C (second compound 0.0316 µM, first compound 3.16 µM) was 12.4% and the viability, T/C (second compound 0.0316 µM, first compound 10 µM) was 8.75%. It also gave a viability, T/C (second compound 0.1 µM, first compound 0.0316 µM) of 52.1%, a viability, T/C (second compound 0.1 µM, first compound 0.1 µM) of 37.7% and a viability, T/C (second compound 0.1 µM, first compound 0.316 µM) of 31.4%. For the same compound, the viability, T/C (second compound 0.1 µM, first compound 1 µM) was 22.4%, the viability, T/C (second compound 0.1 µM, first compound 3.16 µM) was 11.2% and the viability, T/C (second compound 0.1 µM, first compound 10 µM) was 6.81%. It also gave a viability, T/C (second compound 0.316 µM, first compound 0.0316 µM) of 34.7%, a viability, T/C (second compound 0.316 µM, first compound 0.1 µM) of 28.8% and a viability, T/C (second compound 0.316 µM, first compound 0.316 µM) of 24.6%. For the same compound, the viability, T/C (second compound 0.316 µM, first compound 1 µM) was 20.6%, the viability, T/C (second compound 0.316 µM, first compound 3.16 µM) was 10.6% and the viability, T/C (second compound 0.316 µM, first compound 10 µM) was 5.02%. For the same compound, the viability, T/C (second compound 1 µM, first compound 0.0316 µM) was 26.2%, the viability, T/C (second compound 1 µM, first compound 0.1 µM) was 23.6% and the viability, T/C (second compound 1 µM, first compound 0.316 µM) was 23.4%. The viability, T/C (second compound 1 µM, first compound 1 µM) was 16.5%, the viability, T/C (second compound 1 µM, first compound 3.16 µM) was 8.21% and the viability, T/C (second compound 1 µM, first compound 10 µM) was 5.34%.

From PubChem BioAssay AID1963964 (Molecular Pharmacology Branch, DTP, NCI, 2024)
